Source: patent US12415819B2, “Cu- and Ni-catalyzed decarboxylative borylation reactions” (The Scripps Research Institute, priority 2017, dated 2025)

Tests used:
in vitro = settings: human
Protocol: Digoxin, fenoterol, and propranol were used as standards respectively. Transport Method:
The transport buffer used in the study was HBSS with 10 mM HEPES at pH 7.40±0.05. Compounds were tested at 2 μM bi-directionally in duplicates. Digoxin was tested at […] bi-directionally in a duplicate, while fenoterol and propranolol were tested at 2 μM in A(apical) to B (basolateral) direction in duplicates. The final DMSO concentration was adjusted to less than 1%. The plate was incubated for 2 hours in a CO2 incubator at 37±1° C., with 5% CO2 at saturated humidity without shaking. All samples, after mixing with acetonitrile containing internal standard, were centrifuged at 4000 rpm for 20 min. Subsequently,100 μL supernatant solution was diluted with 100 μL distilled water for LC/MS/MS analysis. Concentrations of test and control compounds in starting solution, donor solution, and receiver solution were quantified by LC/MS/MS methodologies, using peak area ratio of analyte/internal standard. After transport assay, lucifer yellow rejection assay was applied to determine the Caco-2 cell monolayer integrity.
Data analysis: The apparent permeability coefficient Papp (cm/s) was calculated using the equation:
The efflux ratio was calculated using the equation: Efflux ratio=Papp(BA)/Papp(AB)
Percent recovery was calculated using the equation: % Recovery=100×[(Vr·Cr)+(Vd·Cd)]/(Vd·C0) Where Vd is the volume in the donor chambers (0.075 mL on the apical side, 0.25 mL on the basolateral side); Cd and Cr are the final concentrations of transport compound in donor and receiver chambers, respectively.

Plasma Stability Assay = type: in vitro ADME, mouse; settings: for % Remaining (mean): CD-1 Mouse Plasma; for portion intact in CD-1 mouse plasma: over 2 hours; for CD-1 Mouse Plasma % Remaining @ 2 hr: summary table
Protocol: Propantheline was used as the reference compound in this assay; all stock solutions were stored at −40° C. before use. • 2) Test system: CD-1 Mouse Plasma from a minimum of 20 male individuals were obtained from BioreclamationlVT (Catalog #: […]2-M; Batch #: MSE244515). EDTA-K2 was used as the anticoagulant. Procedure:
The frozen plasma was thawed in a water bath at 37° C. prior to the experiments. The plasma was centrifuged at 4000 rpm for 5 min and the clots were removed if necessary.
The pH was adjusted to 7.4±0.1 as necessary. An intermediate solution (1 mM) was prepared and a 100 μM dosing solution was prepared by diluting 10 μL of the intermediate solution with 90 μL 45% MeOH/H2O. Duplicate of test samples were made by mixing 98 μL of blank plasma with 2 μL of dosing solution (100 μM) to achieve the final concentration of 2 μM. Samples were incubated at 37° C. At each time point (0, 10, 30, 60, and 120 min), 400 μL of stop solution (consisting of 200 ng/mL tolbutamide and 20 ng/mL buspirone in 50% MeOH/CH3CN) was added to precipitate protein under thorough mixing. The sample plates were then centrifuged at 4,000 rpm for 10 min. An aliquot of supernatant (100 μL) was transferred from each well and mixed with 200 of μL ultrapure water. The samples were shaken at 800 rpm for about 10 min before LC-MS/MS analysis.
Data analysis: The % remaining of test compound after incubation in plasma was calculated using following equation: Remaining=100×(PAR at Tn/PAR at T0) where PAR is the peak area ratio of analyte versus internal standard (IS) and The appointed incubation time points are T0 (0 min), Tn (n=0, 10, 30, 60, 120 min).
LC-MS/MS condition: Each compound was analyzed by LC/MS using an ACE 5-phenyl 50×2.1 mm column (Part No. ACE-125-0502) with 0.1% formic acid in water and 0.1% formic acid in acetonitrile as the mobile phases. Tobultamide was used as the internal standard. Data collected were processed by Analyst 1.6.2 software and MultiQuant 3.0.2 software.

For `CC(C)[C@H](NC(=O)[C@@H]1CCCN1C(=O)[C@@H](NC(=O)c1ccc(C(=O)NS(=O)(=O)c2ccc(Cl)cc2)cc1)C(C)C)B(O)O` [Compound 51, (1-((S)-1-((4-(((4-chlorophenyl)sulfonyl)carbamoyl)benzoyl)-L-valyl)pyrrolidine-2-carboxamido)-2-methylpropyl)boronic acid], the Papp A→B at 120 min, 2 μM (in vitro; Caco-2, pH 7.4) was less than 0.16 ×10⁻⁶ cm/s, the Papp A→B at 2 h, 2 μM (in vitro; Caco-2, pH 7.4) was less than 0.08 ×10⁻⁶ cm/s and the Papp B→A at 120 min, 2 μM (in vitro; Caco-2, pH 7.4) was 0.61 ×10⁻⁶ cm/s. The Papp B→A at 2 h, 2 μM (in vitro; Caco-2, pH 7.4) was less than 0.12 ×10⁻⁶ cm/s, the efflux ratio at 2 h, 2 μM (in vitro; Caco-2, pH 7.4) was greater than 3.91 and the recovery at 2 h, 2 μM (in vitro; Caco-2, pH 7.4, Mean Recovery % A to B) was less than 88.2%. For the same compound, the recovery at 2 h, 2 μM (in vitro; Caco-2, pH 7.4, Mean Recovery % B to A) was 99.1%, the “% Remaining (mean)” value (Plasma Stability Assay; 0 min, 2 μM, 37° C.) was 100.0% and the “% Remaining (mean)” value (Plasma Stability Assay; 10 min) was 90.0%. For the same compound, the “% Remaining (mean)” value (Plasma Stability Assay; 30 min) was 79.4%, the “% Remaining (mean)” value (Plasma Stability Assay; 60 min) was 84.1% and the “% Remaining (mean)” value (Plasma Stability Assay; 120 min) was 90.3%. For the same compound, the “portion intact in CD-1 mouse plasma” value (Plasma Stability Assay) was 90% and the “CD-1 Mouse Plasma % Remaining @ 2 hr” value (Plasma Stability Assay) was 90.3%.

In the case of `CC(C)[C@H](NC(=O)[C@@H]1CCCN1C(=O)[C@@H](NC(=O)c1ccc(C(=O)NCC(=O)O)cc1)C(C)C)B(O)O` [Compound 52, (4-(((2S)-1-((2S)-2-((1-borono-2-methylpropyl)carbamoyl)pyrrolidin-1-yl)-3-methyl-1-oxobutan-2-yl)carbamoyl)benzoyl)glycine], the “% Remaining (mean)” value (Plasma Stability Assay; 0 min, 2 μM, 37° C.) is reported as 100.0%, the “% Remaining (mean)” value (Plasma Stability Assay; 10 min) is reported as 116.1% and the “% Remaining (mean)” value (Plasma Stability Assay; 30 min) is reported as 104.8%. For the same compound, the “% Remaining (mean)” value (Plasma Stability Assay; 60 min) was 96.4%, the “% Remaining (mean)” value (Plasma Stability Assay; 120 min) was 79.2% and the “portion intact in CD-1 mouse plasma” value (Plasma Stability Assay) was 79%. The “CD-1 Mouse Plasma % Remaining @ 2 hr” value (Plasma Stability Assay) was 79.2%.
